Assay results published in patent US20260092179A1, “GENETICALLY MODIFIED HOST CELLS PRODUCING VIOLACEIN, ANALOGUES, AND DERIVATIVES THEREOF” (OCTARINE BIO APS, priority 2022, published 2026).

Key:
[1] = Solubility, stability (heat, UV) and colour of violacein and proviolacein glycosides in aqueous solution; format: physicochemical
Text: In this experiment, qualitative assessments of the solubility, stability and colour of glycosylated violacein and proviolacein were made. The first notable observation was that after the scale-up glycosylation reaction the aqueous phase of the reaction mix was purple (for violacein) and blue (for proviolacein). […] While its well known that glycosylation greatly improves the water solubility of molecules, the attachment of a sugar group typically changes the physiochemical properties of the molecule. In the case of coloured compounds, this typically eliminates their colour. The observation here that glycosylation results in a derivative that retains the original colour is both surprising and commercially useful for use in aqueous products e.g. beverages. To test the stability of violacein and proviolacein glycosides in aqueous solution the solutions were exposed to heat (incubated at 80° c. for 6 h) and UV (incubated in a UV hood for 6 h). HPLC analysis before after each test was used to measure the amount that had degraded during exposure. […] (approx. 0.1% lost during exposure).

S. cerevisiae = assay: Cultivation of engineered S. cerevisiae production strains (titer of each metabolite, final OD600, product toxicity); conditions: intracellular accumulation; growth rate and final OD600
Method: Genetically engineered yeast strains were pre-cultured in 500 μL or 5 mL of liquid Delft minimal media (Table 10) with 20 g/L glucose and relevant amino acid supplements for 48 h at 30° C. and 280 rpm in 2 mL microtiter plates with air-permeable sealing or 12 mL cultivation tubes. Subsequently, 10 μL or 1 mL of yeast preculture was transferred to 490 μL or 49 mL of Delft minimal media with 20 g/L glucose and relevant amino acid supplements and cultivated for 72 h at 30° C. and 280 rpm in either a 2 mL microtiter plate with air-permeable sealing, or a 200 mL shakeflask. After cultivation, extracellular metabolites were extracted by mixing whole cell broth 1:1 with 100% methanol, vortexing thoroughly and centrifuging at 4000×g for 5 min. […]
In some cases, where a non-ionic surfactant was added to the cultivation media, extraction of extracellular metabolites was done by centrifuging the entire culture broth at 4000×g for 5 min to separate the culture into 3 phases, a biomass “pellet” a dilute surfactant phase, and a violacein or violacein derivative concentrated surfactant phase. […] Where possible, authentic analytical standards were used for quantification. […] Yeast cells were pelleted by centrifugation at 11.000×G for 5 min., and the supernatant was recovered and analyzed by UHPLC or LC-MS/MS. […]

E. coli DH5a = assay: Antimicrobial activity of dyed Nylon 6,6 fabric: final OD600 and % inhibition; format: cell-based
Method: (§1) Violacein is reported as being a potent antibiotic, capable of inhibiting the growth of a wide range of microbial kingdoms including bacteria, yeast, fungi, viruses, protozoa and nematode. […] To test this, overnight cultures of wild-type E. coli DH5a and S. cerevisiae S228c strains were diluted in 5 mL of cultivation media (LB for E. coli, minimal media for S. cerevisiae) to a starting OD600 of 0.1. 1.5×1.5 cm dyed Nylon 6,6 fabric strips were sterilized by submerging in 75% ethanol for 15 mins and air drying in a laminar air flow hood before adding to each culture (with undyed Nylon 6,6 fabric as a negative control). […] This experiment provides evidence that all violacein derivatives display antimicrobial properties.

S. cerevisiae S228c = assay: as above; format: cell-based
Method: as §1

[2] = Free radical scavenging ability of dyed Nylon 6,6 fabric (DPPH); format: biochemical; conditions: dyed Nylon 6,6 fabric strip
Method: Violacein is reported as being a potent antioxidant able to effectively scavenge free radicals. […] To test this, 1.5×1.5 cm dyed Nylon 6,6 fabric strips were incubated in the dark at room temperature for 1 h in 5 mL of a 5×10^−5 M DPPH free radical solution in 100% ethanol. Undyed Nylon 6,6 fabric strips were included as a negative control. After 1 h absorbance was measured at 517 nm and % scavenging ability calculated as above.

[3] = UV absorption capability (absorbance maxima, UV-A, UV-B, UV-C absorption) by HPLC; format: physicochemical
Method: The software Agilent Openlab CDS Chemstation Rev.
Violacein is reported as being a potent UV absorbent able to effectively absorb UV radiation, however, much less is known about the other violacein derivatives. To investigate the potential of using violacein and violacein derivatives as UV inhibitors and to potentially impart UV protection to fabrics, the UV absorption spectra of each compound was analyzed by HPLC and the total absorption capability at each of the most relevant UV wavelengths quantified.
For the quantification of UV absorption capacity of the compound of interest, a chromatographic separation on the F5 column and a gradient of water/acetonitrile containing 0.05% formic acid was run according to Example 5). […] The compounds were quantified based on the signal at 230 nm, using calibration curves of authentic analytical standards.
The UV absorption capacity is represented in mAU.min/mM. UV-A, UV-B and UV-C represent the most relevant regions where UV protection is required. UV-C is the most harmful type of UV radiation and can be generated by inorganic sources. UV-B radiation predominantly comes from the suns rays and is responsible for sun burn. UV-A radiation is also derived predominantly from the suns rays, and while UV-A radiation is less harmful than UV-B or UV-C but is much more prevalent.

Method for S. cerevisiae SC-144: After cultivation cultures were transferred to 50 mL falcon tubes and centrifuged 4000×g for 5 min. […] The aqueous layers were separated from the cell pellets to observe the colour of the cells. […] Samples were diluted in water to a final volume of 100 μL until they were within the linear range of the spectrophotometric plate reader. Each sample was measured at 575 nm (experimentally determined to be the emission maxima of deoxyviolacein). […] The final OD600 of each cultivation was also measured by first washing the cell pellet with water (to remove as much deoxyviolacein from the media as possible) and finally resuspending in 50 mL water.

## (1,1,3,3-Tetramethylbutyl)phenyl-polyethylene glycol, Polyethylene glycol tert-octylphenyl ether [Triton X-114]
S. cerevisiae SC-144
  toxicity of in situ extractant to S. cerevisiae: non-toxic

## O=C1NC(c2c[nH]c3ccc(OC4OC(CO)C(O)C(O)C4O)cc23)=CC1=C1C(=O)Nc2ccccc21 (stereo not shown) [violacein glucoside]
[1]
  amount lost (degraded) during exposure to UV: approx. 0.1%
  amount lost (degraded) during exposure to heat: approx. 0.1%
  water solubility: water soluble

## N=C(Cc1c[nH]c2ccccc12)C(=O)O [IPA imine, Indole 3-pyruvic acid imine]
S. cerevisiae
  toxicity to the yeast production host: not toxic

## CCCCCCCCCCCCCC(=O)OC(C)C [isopropyl myristate]
S. cerevisiae SC-144
  toxicity of in situ extractant to S. cerevisiae: non-toxic

## O=C1N=C(c2c[nH]c3ccccc23)C=C1c1c[nH]c2ccccc12 [prodeoxyviolacein]
E. coli DH5a; E. coli cultured overnight at 30° c. with dyed Nylon 6,6 fabric strip, starting OD600 0.1
  Final OD600: 4.67
E. coli DH5a; E. coli, dyed Nylon 6,6 fabric vs undyed fabric control
  % Inhibition: 10.49%
S. cerevisiae S228c; S. cerevisiae cultured overnight at 30° c. with dyed Nylon 6,6 fabric strip, starting OD600 0.1
  Final OD600: 4.70
S. cerevisiae S228c; S. cerevisiae, dyed Nylon 6,6 fabric vs undyed fabric control
  % Inhibition: 12.35%
[2]; 1 h in the dark in 5×10^−5 M DPPH in 100% ethanol
  OD517: 1.99
[2]; 1 h in the dark in 5×10^−5 M DPPH, vs undyed control
  Scavenging ability %: 12.28%
[3]; 305 nm
  UV absorption capability in the UV-B region: particularly high
[3]; AUC of HPLC peak at 245 nm per mM
  Total UV absorption UV C (245 nm): 3516.1 (mAU · min)/mM
[3]; AUC of HPLC peak at 305 nm per mM
  Total UV absorption UV B (305 nm): 3778.8 (mAU · min)/mM
[3]; AUC of HPLC peak at 360 nm per mM
  Total UV absorption UV A (360 nm): 0 (mAU · min)/mM
